The values that follow come from patent US12668594B2, “TYK2 inhibitors and uses thereof” (Sudo Biosciences Limited, priority 2020, dated 2026).

Test [1] concerns the target T1, TYK2 (Homo sapiens, UniProt P29597). The experiment in a line: HEK-Blue IL-23 reporter assay (SEAP) for TYK2 pseudokinase inhibition. The conditions noted are these: HEK-Blue IL-23 cells, 10 ng/mL human recombinant IL-23, SEAP reporter; read-out: IL23 IC50. More on the design: HEK-Blue™ IL-23 and IFNα/β cells with a stably-integrated cytokine receptor and STAT3 or STAT1; host or cells: HEK-Blue IL-23 / HEK-Blue IFNα/β cells (HEK293 background). It is filed as cell-based. The procedure: (§1) HEK-Blue™ IL-23 and IFNα/β cells with a stably-integrated cytokine receptor and STAT3 or STAT1 express STAT-inducible secreted embryonic alkaline phosphatase (SEAP) reporter gene upon cytokine stimulation. These cells are plated in DMVEM (Gibco) containing 10% heat-inactivated FBS (Gibco) and 100 U/mL PenStrep (Gibco) at 37° C. under […] conditions for 20-22 hours. The cells are then pretreated with serially diluted test compounds for 60 min prior to stimulation with either 10 ng/mL human recombinant IL-23 (Miltenyl Biotech) or 1 ng/mL human recombinant IFNα (InvivoGen) for 22-24 hours for IL-23 or 16-18 h for IFNα. SEAP induction is measured using the QUANTI Blue™ Solution (InvivoGen) according to the manufacturer's instructions. Inhibition data are calculated by comparison to no inhibitor control wells for 000 inhibition and non-stimulated control wells for 10000 inhibition. Dose response curves are generated to determine the concentration required to inhibit 5000 of cellular response (IC50) as derived by non-linear regression analysis.
For orientation: In a reporter assay the amount or activity of a reporter protein is the signal.

Test [2] addresses T1, TYK2. Kind of test: HEK-Blue IFNα/β reporter assay (SEAP) for TYK2 pseudokinase inhibition. It is filed as cell-based. The conditions noted are these: HEK-Blue IFNα/β cells, 1 ng/mL human recombinant IFNα. On the procedure: as §1

In general, IC50 refers to the concentration that inhibits the measured activity by half.

T1 sequence (P29597 whole entry): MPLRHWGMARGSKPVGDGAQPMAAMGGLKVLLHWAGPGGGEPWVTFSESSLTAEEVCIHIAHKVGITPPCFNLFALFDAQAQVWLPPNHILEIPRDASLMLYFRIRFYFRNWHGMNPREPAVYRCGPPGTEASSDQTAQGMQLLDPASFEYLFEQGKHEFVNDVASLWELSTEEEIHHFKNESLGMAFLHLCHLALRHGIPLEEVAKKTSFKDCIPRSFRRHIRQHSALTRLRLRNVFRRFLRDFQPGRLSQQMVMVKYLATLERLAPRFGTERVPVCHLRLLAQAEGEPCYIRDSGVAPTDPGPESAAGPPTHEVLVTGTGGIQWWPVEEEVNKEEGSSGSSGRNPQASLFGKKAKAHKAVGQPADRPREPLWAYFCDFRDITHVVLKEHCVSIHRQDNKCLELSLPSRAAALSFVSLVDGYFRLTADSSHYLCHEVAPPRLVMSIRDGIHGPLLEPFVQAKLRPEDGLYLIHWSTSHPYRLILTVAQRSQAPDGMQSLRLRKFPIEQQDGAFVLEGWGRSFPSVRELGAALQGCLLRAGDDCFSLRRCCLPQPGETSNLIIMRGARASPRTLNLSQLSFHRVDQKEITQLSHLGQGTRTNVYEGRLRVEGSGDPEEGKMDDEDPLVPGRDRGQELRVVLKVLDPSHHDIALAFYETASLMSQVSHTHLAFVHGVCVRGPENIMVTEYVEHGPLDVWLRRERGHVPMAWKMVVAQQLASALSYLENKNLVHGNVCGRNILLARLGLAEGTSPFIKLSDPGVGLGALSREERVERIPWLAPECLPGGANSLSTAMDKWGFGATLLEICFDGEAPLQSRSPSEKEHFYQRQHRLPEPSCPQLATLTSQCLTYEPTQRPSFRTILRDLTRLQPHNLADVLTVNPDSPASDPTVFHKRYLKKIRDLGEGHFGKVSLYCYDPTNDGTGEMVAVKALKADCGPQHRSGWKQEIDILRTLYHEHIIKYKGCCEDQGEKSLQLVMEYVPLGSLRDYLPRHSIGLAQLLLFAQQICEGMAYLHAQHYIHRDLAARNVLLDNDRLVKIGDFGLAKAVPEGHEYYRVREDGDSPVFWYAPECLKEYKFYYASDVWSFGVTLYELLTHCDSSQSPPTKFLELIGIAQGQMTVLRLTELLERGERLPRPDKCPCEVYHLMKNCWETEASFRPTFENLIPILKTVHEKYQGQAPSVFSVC

For `Cn1ccc(Nc2cc3c(cn2)c(=O)[nH]n3-c2ccccc2)n1` [Compound I-4, 6-((1-methyl-1H-pyrazol-3-yl)amino)-1-phenyl-1,2-dihydro-3H-pyrazolo[4,3-c]pyridin-3-one], the IC50 on TYK2 [1] was below 10 µM; at TYK2 [2], 10 to 30 µM.

For `Cn1cc(Nc2cc3c(cn2)c(=O)[nH]n3-c2ccccc2)cn1` [Compound I-5, 6-((1-methyl-1H-pyrazol-4-yl)amino)-1-phenyl-1,2-dihydro-3H-pyrazolo[4,3-c]pyridin-3-one], the IC50 lay in the range of 10 to 30 µM at TYK2 [1] and 30 to 90 µM at TYK2 [2].

Regarding `Cc1cc(Nc2cc3c(cn2)c(=O)[nH]n3-c2ccccc2)ncc1F` [Compound I-6, 6-((5-fluoro-4-methylpyridin-2-yl)amino)-1-phenyl-1,2-dihydro-3H-pyrazolo[4,3-c]pyridin-3-one], the IC50 at TYK2 [1] and at TYK2 [2] was below 10 µM each time.

Turning to `COCCC(=O)Nc1cc2c(cn1)c(=O)[nH]n2-c1ccccc1` [Compound I-7, 3-methoxy-N-(3-oxo-1-phenyl-2,3-dihydro-1H-pyrazolo[4,3-c]pyridin-6-yl)propanamide], the values for the 50% inhibitory concentration (IC50) at TYK2 [1] and on TYK2 [2] were 10 to 30 µM and 30 to 90 µM, respectively.

As for `Cc1nc(Nc2cc3c(cn2)c(=O)[nH]n3-c2ccccc2)cc(OC(C)C)n1` [Compound I-8, 6-((6-isopropoxy-2-methylpyrimidin-4-yl)amino)-1-phenyl-1,2-dihydro-3H-pyrazolo[4,3-c]pyridin-3-one], the IC50 at TYK2 [1] was below 10 µM; on TYK2 [2], 10 to 30 µM.

For `O=C(Nc1cc2c(cn1)c(=O)[nH]n2-c1ccccc1)c1ccccn1` [Compound I-9, N-(3-oxo-1-phenyl-2,3-dihydro-1H-pyrazolo[4,3-c]pyridin-6-yl)picolinamide], the IC50 at TYK2 [1] and at TYK2 [2] was above 90 µM in each case.

`O=C(Nc1cc2c(cn1)c(=O)[nH]n2-c1ccccc1)c1cccnc1` [Compound I-10, N-(3-oxo-1-phenyl-2,3-dihydro-1H-pyrazolo[4,3-c]pyridin-6-yl)nicotinamide]: the IC50 at TYK2 [1] was above 90 µM.

Regarding `CC(C)N1CCN(c2cc3c(cn2)c(=O)[nH]n3-c2ccccc2)C1=O` [Compound I-13, 6-(3-isopropyl-2-oxoimidazolidin-1-yl)-1-phenyl-1,2-dihydro-3H-pyrazolo[4,3-c]pyridin-3-one], the IC50 on TYK2 [1] was 30 to 90 µM.

In the case of `COc1ccccc1-n1[nH]c(=O)c2cnc(NC(=O)C3CC3)cc21` [Compound I-15, N-(1-(2-methoxyphenyl)-3-oxo-2,3-dihydro-1H-pyrazolo[4,3-c]pyridin-6-yl)cyclopropanecarboxamide], the IC50 on TYK2 [1] was in the range of 10 to 30 µM; at TYK2 [2] it was 30 to 90 µM.

As for `COc1ccccc1-n1[nH]c(=O)c2cnc(Nc3ccc(F)cn3)cc21` [Compound I-16, 6-((5-fluoropyridin-2-yl)amino)-1-(2-methoxyphenyl)-1,2-dihydro-3H-pyrazolo[4,3-c]pyridin-3-one], the IC50 at TYK2 [1] was 30 to 90 µM; on TYK2 [2], above 90 µM.

Consider `Cc1cc(Nc2cc3c(cn2)c(=O)[nH]n3-c2cccc(C#N)c2)nc(C)n1` [Compound I-18, 3-(6-((2,6-dimethylpyrimidin-4-yl)amino)-3-oxo-2,3-dihydro-1H-pyrazolo[4,3-c]pyridin-1-yl)benzonitrile], for which the IC50 on TYK2 [1] was below 10 µM; on TYK2 [2], 10 to 30 µM.

With `COc1ccc(-n2[nH]c(=O)c3cnc(NC(=O)C4CC4)cc32)cc1` [Compound I-19, N-(1-(4-methoxyphenyl)-3-oxo-2,3-dihydro-1H-pyrazolo[4,3-c]pyridin-6-yl)cyclopropanecarboxamide], the IC50 is below 10 µM at TYK2 [1] and 10 to 30 µM on TYK2 [2].

In the case of `Cc1cc(Nc2cc3c(cn2)c(=O)[nH]n3-c2ccccc2S(C)(=O)=O)nc(C)n1` [Compound I-20, 6-((2,6-dimethylpyrimidin-4-yl)amino)-1-(2-(methylsulfonyl)phenyl)-1,2-dihydro-3H-pyrazolo[4,3-c]pyridin-3-one], the IC50 at TYK2 [1] was 10 to 30 µM; at TYK2 [2], 30 to 90 µM.

Turning to `Cc1cc(Nc2cc3c(cn2)c(=O)[nH]n3-c2cccc(C(N)=O)c2)nc(C)n1` [Compound I-21, 3-(6-((2,6-dimethylpyrimidin-4-yl)amino)-3-oxo-2,3-dihydro-1H-pyrazolo[4,3-c]pyridin-1-yl)benzamide], the IC50 on TYK2 [1] was above 90 µM.

With `COc1c(-c2ncn(C)n2)cccc1-n1[nH]c(=O)c2cnc(Nc3cc(C)nc(C)n3)cc21` [Compound I-22, 6-[(2,6-dimethylpyrimidin-4-yl)amino]-1-[2-methoxy-3-(1-methyl-1H-1,2,4-triazol-3-yl)phenyl]-1H,2H,3H-pyrazolo[4,3-c]pyridin-3-one], the values for the IC50 at TYK2 [1] and at TYK2 [2] were below 10 µM and 10 to 30 µM, respectively.

For `Cc1cc(Nc2cc3c(cn2)c(=O)[nH]n3-c2cccc(-c3ncn(C)n3)c2)nc(C)n1` [Compound I-23, 6-((2,6-dimethylpyrimidin-4-yl)amino)-1-(3-(1-methyl-1H-1,2,4-triazol-3-yl)phenyl)-1,2-dihydro-3H-pyrazolo[4,3-c]pyridin-3-one], the IC50 was below 10 µM at TYK2 [1] and 10 to 30 µM on TYK2 [2].

Turning to `COc1cccc(-n2[nH]c(=O)c3cnc(Nc4cc(C)nc(C)n4)c(F)c32)c1` [Compound I-24, 6-((2,6-dimethylpyrimidin-4-yl)amino)-7-fluoro-1-(3-methoxyphenyl)-1,2-dihydro-3H-pyrazolo[4,3-c]pyridin-3-one], the IC50 is 10 to 30 µM on TYK2 [1] and above 90 µM on TYK2 [2].

For `CS(=O)(=O)c1ccccc1-n1[nH]c(=O)c2cnc(Nc3ccc(F)cn3)cc21` [Compound I-26, 6-((5-fluoropyridin-2-yl)amino)-1-(2-(methylsulfonyl)phenyl)-1,2-dihydro-3H-pyrazolo[4,3-c]pyridin-3-one], the IC50 at TYK2 [1] and on TYK2 [2] was below 10 µM each time.

As for `Cc1cc(Nc2cc3c(cn2)c(=O)[nH]n3-c2cccc(S(C)(=O)=O)c2)nc(C)n1` [Compound I-27, 6-((2,6-dimethylpyrimidin-4-yl)amino)-1-(3-(methylsulfonyl)phenyl)-1,2-dihydro-3H-pyrazolo[4,3-c]pyridin-3-one], the IC50 on TYK2 [1] was above 90 µM.

With `Cc1cc(Nc2cc3c(cn2)c(=O)[nH]n3-c2cccc(OC(F)(F)F)c2)nc(C)n1` [Compound I-28, 6-((2,6-dimethylpyrimidin-4-yl)amino)-1-(3-(trifluoromethoxy)phenyl)-1,2-dihydro-3H-pyrazolo[4,3-c]pyridin-3-one], the IC50 at TYK2 [1] and on TYK2 [2] was below 10 µM each time.

On to `Cc1cc(Nc2cc3c(cn2)c(=O)[nH]n3-c2cccc(C(F)(F)F)c2)ncc1F` [Compound I-29, 6-((5-fluoro-4-methylpyridin-2-yl)amino)-1-(3-(trifluoromethyl)phenyl)-1,2-dihydro-3H-pyrazolo[4,3-c]pyridin-3-one], for which the IC50 at TYK2 [1] and on TYK2 [2] was below 10 µM in each case.

Consider `Cc1cc(Nc2cc3c(cn2)c(=O)[nH]n3-c2cccnc2)nc(C)n1` [Compound I-30, 6-((2,6-dimethylpyrimidin-4-yl)amino)-1-(pyridin-3-yl)-1,2-dihydro-3H-pyrazolo[4,3-c]pyridin-3-one], for which the values for the IC50 on TYK2 [1] and at TYK2 [2] were below 10 µM and 10 to 30 µM, respectively.

For `Cc1cc(Nc2cc3c(cn2)c(=O)[nH]n3-c2cccc(Cl)c2)nc(C)n1` [Compound I-31, 1-(3-chlorophenyl)-6-((2,6-dimethylpyrimidin-4-yl)amino)-1,2-dihydro-3H-pyrazolo[4,3-c]pyridin-3-one], the half-maximal inhibitory concentration (IC50) on TYK2 [1] and on TYK2 [2] was below 10 µM throughout.

Take `Cc1cc(Nc2cc3c(cn2)c(=O)[nH]n3-c2ccc(S(C)(=O)=O)cc2)nc(C)n1` [Compound I-32, 6-((2,6-dimethylpyrimidin-4-yl)amino)-1-(4-(methylsulfonyl)phenyl)-1,2-dihydro-3H-pyrazolo[4,3-c]pyridin-3-one]: the IC50 at TYK2 [1] is 10 to 30 µM; at TYK2 [2], above 90 µM.

Turning to `COc1cccc(-n2[nH]c(=O)c3cnc(Nc4cc(C(F)(F)F)ccn4)cc32)c1` [Compound I-43, 1-(3-methoxyphenyl)-6-((4-(trifluoromethyl)pyridin-2-yl)amino)-1,2-dihydro-3H-pyrazolo[4,3-c]pyridin-3-one], on TYK2 [1], the half-maximal inhibitory concentration (IC50) was above 90 µM.

For `O=c1[nH]n(-c2cc(Cl)cc(Cl)c2)c2cc(Nc3ccc(F)cn3)ncc12` [Compound I-97, 1-(3,5-dichlorophenyl)-6-((5-fluoropyridin-2-yl)amino)-1,2-dihydro-3H-pyrazolo[4,3-c]pyridin-3-one], on TYK2 [1], the half-inhibitory concentration (IC50) is above 90 µM.

For `Cc1cc(Nc2cc3c(cn2)c(=O)[nH]n3-c2ccc(C(N)=O)cc2)nc(C)n1` [Compound I-123, 4-(6-((2,6-dimethylpyrimidin-4-yl)amino)-3-oxo-2,3-dihydro-1H-pyrazolo[4,3-c]pyridin-1-yl)benzamide], at TYK2 [1], the IC50 was above 90 µM.

As to `COc1cccc(-n2[nH]c(=O)c3cnc(NC(=O)C4(O)CC4)cc32)c1` [Compound I-124, 1-hydroxy-N-(1-(3-methoxyphenyl)-3-oxo-2,3-dihydro-1H-pyrazolo[4,3-c]pyridin-6-yl)cyclopropane-1-carboxamide], on TYK2 [1], the IC50 is below 10 µM.
